Results from patent US20210386367A1, “DEVICES AND SYSTEMS FOR GASTROINTESTINAL MICROBIOME DETECTION AND MANIPULATION” (Progenity, Inc., priority 2018, published 2021).
Values after ≈ are worked out from the molar mass of the structure shown. Values joined by “and” are separate entries in the source; they are usually repeats but may differ in a detail not shown here. Equal values may be shown once. Read-outs that look alike come from different tables or passages of the source.

Legend:
Format in all cases: cell-based
Streptococcus agalactiae = assay: Broth microdilution MIC, 20 clinical isolates
Procedure: (§1) Minimal inhibitory concentration (MIC) values were determined by broth microdilution or agar dilution in accordance with guidelines from the Clinical and Laboratory Standards Institute (CLSI; (1) “Methods for Dilution Antimicrobial Susceptibility Tests for Bacteria That Grow Aerobically; Approved Standard; 11th ed.” CLSI standard M07-A11, 2018; (2) “Performance Standards for Antimicrobial Susceptibility Testing; Twenty-Eighth Informational Supplement,” CLSI document M100-S28, 2018; and (3) “Methods for Antimicrobial Susceptibility Testing of Anaerobic Bacteria; Approved Standard—Eighth Edition,” CLSI document M11-A8, 2012).
(§2) Tested aerobically by broth microdilution: • Escherichia coli, n=50 • Klebsiella spp., n=50 • Pseudomonas aeruginosa, n=50 • Streptococcus spp., n=50 • Staphylococcus aureus, n=50 • Enterococcus faecalis, n=50 • Enterobacter aerogenes, n=50 • Proteus mirabilis, n=50
(§3) Broth microdilution testing of aerobic bacteria was conducted in cation-adjusted Mueller Hinton broth (MHBII). For testing streptococci, lysed horse blood (LHB) was added to MHBII broth at a final concentration of 3%. Where LHB was used, it was added after filtering.
(§4) Broth microdilution susceptibility testing in 96-well microplates was conducted in accordance with CLSI methods (1) and (2). Automated liquid handlers were used to conduct serial dilutions and liquid transfers, including the Multidrop 384 (Labsystems, Helsinki, Finland), Biomek 2000, and the Biomek FX (Beckman Coulter, Fullerton, Calif.). All wells in columns 2 through 12 of a standard 96-well microdilution plate (Costar 3795) were filled with 150 μL of the appropriate diluent. Then, 300 μL of the test agents were added to the wells of column 1 of the plates at 100× the highest final concentration to be tested. Serial two-fold dilutions were made across the rows through column 11 using the Biomek 2000. The wells of column 12 contained no drug and served as the growth control wells. This plate served as the “mother plate” from which MIC assay plates or “daughter plates” were made.
(§5) The daughter plates were loaded with 190 μL per well of the appropriate medium using the Multidrop 384. The daughter plates were created using the Biomek FX which transferred 2 μL of drug solution from each well of a mother plate to each corresponding well of the daughter plate in a single step. A standardized inoculum of each test organism was prepared per CLSI methods (1) to equal a 0.5 McFarland standard, followed by a dilution of 1:20 for aerobes and 1:10 for anaerobes. The plates were then inoculated with 10 μL of the diluted inoculum using the Biomek 2000 from low to high drug concentration, resulting in a final concentration of approximately 5×10^5 CFU/mL per well. An un-inoculated plate was incubated in parallel for each medium for the purpose of assessing solubility of the drug in the test media.
(§6) Inoculated plates were stacked 3 or 4 high, covered with a sterile lid on the top plate, placed into boxes with CO2 planchets (streptococci) or plastic bags (all other isolates). Plates were incubated at 35° C. for 16-24 hr in ambient air for aerobes or for 42-48 hr in the anaerobic environment of the Bactron II anaerobe chamber (Sheldon Manufacturing Co.; Cornelius, Oreg.). Following incubation, the microplates were removed from the incubator and viewed from the bottom using a plate viewer. The MIC values were read and recorded as the lowest concentration of drug that inhibited visible growth of the organism as per CLSI methods (1) and (2).

[1] = test system: Streptococcus pyogenes clinical isolates; assay: MIC distribution against clinical isolates; conditions: listed as VAN
Text: (§7) As used herein, “minimum inhibitory concentration” or “MIC” refers to the lowest concentration of an antimicrobial agent, for example, an antimicrobial agent as described herein, required to inhibit the growth of an organism. […] “MIC90” represents the MIC value at which ≥90% of the strains within a test population are inhibited; the 90th percentile.
(§8) Many susceptibility testing methods are known in the art and can be used as described herein (see, e.g., Jorgensen and Ferraro (2009) Clinical Infectious Diseases 49:1749-1755; and Maurer et al. (2017) Infectious Disease Reports 9:6839; the entire contents of each of the foregoing are incorporated herein by reference). For example, antimicrobial susceptibility can be determined using conventional culture based methods such as the broth or agar dilution test. In these dilution tests, the bacterial isolate of interest is inoculated onto different media that include serial dilutions of an antimicrobial agent, and incubated under appropriate conditions (e.g., overnight at 37° C.) to allow for growth to occur. Following the incubation period, the media is examined to determine bacterial growth. The lowest concentration of antibiotic that prevents growth represents the minimal inhibitory concentration (MIC). Broth dilution tests can be miniaturized and mechanized allowing for reproducibility and high throughput.

[2] = test system: Viridans group Streptococci clinical isolates; assay: MIC distribution against clinical isolates; conditions: MIC 1 μg/mL; 15 Viridans group Streptococci isolates
Text: as §7, §8

Staphylococcus aureus = assay: Broth microdilution MIC, 50 clinical isolates (28 MRSA)
Procedure: as §1, §2, §3, §4, §5, §6

Streptococcus pyogenes = assay: Broth microdilution MIC, 19 clinical isolates
Procedure: as §1, §2, §3, §4, §5, §6

[3] = test system: Streptococcus spp. clinical isolates; assay: MIC distribution against clinical isolates
Text: (n=19 S. pyogenes, n=20 S. agalactiae and n=20 Viridans group Streptococcus) clinical isolates (μg/mL).
as §7, §8

Streptococcus spp. = assay: Broth microdilution MIC, 54 clinical isolates
Procedure: as §1, §2, §3, §4, §5, §6

Enterococcus faecalis = assay: Broth microdilution MIC, 50 clinical isolates
Procedure: as §1, §2, §3, §4, §5, §6

CN[C@H](CC(C)C)C(=O)N[C@H]1C(=O)N[C@@H](CC(N)=O)C(=O)N[C@H]2C(=O)N[C@H]3C(=O)N[C@H](C(=O)N[C@H](C(=O)O)c4cc(O)cc(O)c4-c4cc3ccc4O)[C@H](O)c3ccc(c(Cl)c3)Oc3cc2cc(c3O[C@@H]2O[C@H](CO)[C@@H](O)[C@H](O)[C@H]2O[C@H]2C[C@](C)(N)[C@H](O)[C@H](C)O2)Oc2ccc(cc2Cl)[C@H]1O [vancomycin, Vancomycin]
MIC range (Streptococcus agalactiae; 20 Streptococcus agalactiae clinical isolates): 0.25 to 1 µg/mL | % S (Streptococcus agalactiae; 20 Streptococcus agalactiae clinical isolates, MXF by FDA breakpoints): 100% | MIC50 (Streptococcus agalactiae; Streptococcus agalactiae): 0.5 µg/mL (≈ 0.345 µM) | MIC90 (Streptococcus agalactiae; Streptococcus agalactiae): 0.5 µg/mL (≈ 0.345 µM) | Mode (Streptococcus agalactiae; modal MIC, 20 Streptococcus agalactiae clinical isolates): 0.5 µg/mL | Cumulative percentage of isolates inhibited at MIC [1]: 89.5% and 100.0% | Cumulative percentage of isolates inhibited at MIC [2]: 100.0% | Number of test isolates at MIC [2]: 1 | % S (Staphylococcus aureus): 100% | MIC range (Staphylococcus aureus): 0.25 to 1 µg/mL | Mode (Staphylococcus aureus): 0.5 µg/mL | MIC50 (Staphylococcus aureus; Staphylococcus aureus): 0.5 µg/mL (≈ 0.345 µM) | MIC90 (Staphylococcus aureus; Staphylococcus aureus): 1 µg/mL (≈ 0.69 µM) | % S (Streptococcus pyogenes): 100% | MIC range (Streptococcus pyogenes): 0.25 to 0.5 µg/mL | Mode (Streptococcus pyogenes): 0.25 µg/mL | MIC50 (Streptococcus pyogenes; Streptococcus pyogenes): 0.25 µg/mL (≈ 0.173 µM) | MIC90 (Streptococcus pyogenes; Streptococcus pyogenes): 0.5 µg/mL (≈ 0.345 µM) | Cumulative percentage of isolates inhibited at MIC ([3]; MIC 1 μg/mL, 54 Streptococcus spp. isolates): 100.0% | Cumulative percentage of isolates inhibited at MIC ([3]; listed as VAN): 50.0% and 96.3% | MIC range (Streptococcus spp.; 54 Streptococcus spp. clinical isolates): 0.25 to 1 µg/mL | % S (Streptococcus spp.; 54 Streptococcus spp. clinical isolates, MXF by FDA breakpoints): 100% | MIC50 (Streptococcus spp.; Streptococcus): 0.25 µg/mL (≈ 0.173 µM) | MIC90 (Streptococcus spp.; Streptococcus): 0.5 µg/mL (≈ 0.345 µM) | Mode (Streptococcus spp.; modal MIC, 54 Streptococcus spp. clinical isolates): 0.25 µg/mL | % R (Enterococcus faecalis): 26% | % S (Enterococcus faecalis): 74% ^ | Mode (Enterococcus faecalis): 0.5 µg/mL | MIC50 (Enterococcus faecalis; Enterococcus faecalis): 1 µg/mL (≈ 0.69 µM) | MIC90 (Enterococcus faecalis; Enterococcus faecalis): > 32 µg/mL | % R (Enterococcus faecalis; listed as VAN): 26% ^
